Data from patent US20150126534A1, “ENZYME AND RECEPTOR MODULATION” (Chroma Therapeutics Ltd, priority 2005, published 2015).

Columns and labels:
[1] = system: HCT116 (non-monocytic cell line); experiment: Cell proliferation inhibition assay (WST-1), HCT116; type: cell-based; conditions: for Ratio IC50 cell/enzyme: HCT116 cell proliferation IC50 / DHFR enzyme IC50; for IC50: Homo sapiens, HCT-116, HCT116 non-monocytic cell line, read-out: Cell proliferation IC50 nM (HCT116)
Procedure: (§1) Following 24 h of growth cells were treated with compound. Plates were then re-incubated for a further 72-96 h before a WST-1 cell viability assay was conducted according to the suppliers (Roche Applied Science) instructions.
(§2) Data were expressed as a percentage inhibition of the control, measured in the absence of inhibitor, as follows: —
(§3) where S^i is the signal in the presence of inhibitor and S^o is the signal in the presence of DMSO.
(§4) Dose response curves were generated from 8 concentrations (top final concentration 10 μM, with 3-fold dilutions), using 6 replicates.

[2] = system: U937 cells (monocytic cell line); experiment: Cell proliferation inhibition assay (WST-1), U937; type: cell-based; conditions: for IC50: Homo sapiens, U-937, read-out: Cell proliferation IC50 nM (U937 cells); for selectivity between a monocytic and non-monocytic cell line (cell proliferation): U937 versus HCT116
Procedure: as §1, §2, §3, §4

[3] = system: carboxylesterase (U937 cell extract); experiment: Broken cell carboxylesterase assay, U937 cell extract; type: in vitro ADME; conditions: U937 versus HCT116
Procedure: U937 or HCT 116 tumour cells (˜10^9) were washed in 4 volumes of Dulbeccos PBS (˜1 litre) and pelleted at 525 g for 10 min at 4° C. This was repeated twice and the final cell pellet was resuspended in 35 ml of cold homogenising buffer (Trizma 10 mM, NaCl 130 mM, CaCl2 0.5 mM pH 7.0 at 25° C.). Homogenates were prepared by nitrogen cavitation (700 psi for 50 min at 4° C.). The homogenate was kept on ice and supplemented with a cocktail of inhibitors at final concentrations of: • Leupeptin 1 μM • Aprotinin 0.1 μM • E64 8 μM • Pepstatin 1.5 μM • Bestatin 162 μM • Chymostatin 33 μM
After clarification of the cell homogenate by centrifugation at 525 g for 10 min, the resulting supernatant was used as a source of esterase activity and was stored at −80° C. until required.
Hydrolysis of esters to the corresponding carboxylic acids can be measured using the cell extract, prepared as above. To this effect cell extract (˜30 μg/total assay volume of 0.5 ml) was incubated at 37° C. in a Tris-HCl 25 mM, 125 mM NaCl buffer, pH 7.5 at 25° C. At zero time the ester (substrate) was then added at a final concentration of 2.5 μM and the samples were incubated at 37° C. for the appropriate time (usually 0 or 80 min). […] After centrifugation at 12000 g for 5 min, samples were analysed for the ester and its corresponding carboxylic acid at room temperature by LCMS (Sciex API 3000, HP1100 binary pump, CTC PAL). […]

[4] = system: TNFα production in human whole blood; experiment: LPS-stimulation of human whole blood, TNF-α ELISA; type: cell-based; conditions: for IC50: Homo sapiens, LPS 100 ng/ml, 6 h, read-out: Inhibition of TNFα production in human whole blood IC50; for Ratio IC50 WB/enzyme: whole blood TNFα IC50 / PI3-Kinase IC50
Procedure: Whole blood was taken by venous puncture using heparinised vacutainers (Becton Dickinson) and diluted in an equal volume of RPMI1640 tissue culture media. 100 μl was plated in V-bottomed 96 well tissue culture plates. Inhibitor was added in 100 μl of RPMI1640 media, and 2 h later the blood was stimulated with LPS (E coli strain 005:B5, Sigma) at a final concentration of 100 ng/ml and incubated at 37° C. in 5% CO2 for 6 h. TNF-α levels were measured from cell-free supernatants by sandwich ELISA (R&D Systems #QTA00B).

[5] = target: T1, PI 3-kinase γ (Homo sapiens, UniProt P48736); experiment: PI 3-kinase γ inhibition assay (HTRF); type: biochemical; conditions: 100 μM MgATP; read-out: Enzyme inhibition IC50 nM (PI3-Kinase)
T1 construct: recombinant N-terminally His6-tagged, full length human enzyme; His6 (N); purchased Upstate (Dundee, UK), assay run by the vendor; host or cells: baculovirus / Sf21 insect cells
Text: The measurement of PI 3-kinase γ activity is dependent upon the specific and high affinity binding of the GRP1 pleckstrin homology (PH) domain to PIP3, the product of PI 3-kinase activity. A complex is formed between europium-labelled anti-GST monoclonal antibody, a GST-tagged GRP1 PH domain, biotinylated PIP3 and streptavidin-allophycocyanin (APC). This complex generates a stable time-resolved fluorescence resonance energy transfer (FRET) signal, which is diminished by competition of PIP3, generated in the PI 3-kinase assay, with the biotinylated PIPS.
The reaction was initiated by the addition of the MgATP mix. After incubation for 30 minutes at room temperature, the reaction was stopped by the addition of 5 μl of stop solution containing EDTA and biotinylated phosphatidylinositol-3,4,5-trisphosphate. Finally, 5 μl of detection buffer was added, which contained europium-labelled anti-GST monoclonal antibody, GST-tagged GRP1 PH domain and streptavidin-APC. The plate was then read in time-resolved fluorescence mode and the homogenous time-resolved fluorescence (HTRF) signal was determined according to the formula HTRF=10000×(Em665 nm/Em620 nm).
Duplicate data points were generated from a ½ log dilution series of a stock solution of compound in DMSO. Nine dilutions steps were made from a top final concentration of 10 μM, and a ‘no compound’ blank was included. HTRF ratio data were transformed into % activity of controls and analysed with a four parameter sigmoidal dose-response (variable slope) application. The concentration giving 50% inhibition (1050) was determined.

[6] = system: HDAC - Hela cell nuclear extract; experiment: Histone deacetylase inhibitory activity assay (Fluor de Lys); type: biochemical; conditions: read-out: Enzyme inhibition IC50 nM (HDAC - Hela cell nuclear extract)
Procedure: The ability of compounds to inhibit histone deacetylase activities was measured using the commercially available HDAC fluorescent activity assay from Biomol. […] Histone deacetylase activity from crude nuclear extract derived from HeLa cells was used for screening. The preparation, purchased from 4C (Seneffe, Belgium), was prepared from HeLa cells harvested whilst in exponential growth phase. […] Acid. […] The final buffer composition was 20 mM Hepes, 100 mM KCl, 0.2 mM EDTA, 0.5 mM DTT, 0.2 mM PMSF and 20% (v/v) glycerol.

[7] = U937 cell proliferation IC50 / DHFR enzyme IC50

T1 sequence (P48736 whole entry): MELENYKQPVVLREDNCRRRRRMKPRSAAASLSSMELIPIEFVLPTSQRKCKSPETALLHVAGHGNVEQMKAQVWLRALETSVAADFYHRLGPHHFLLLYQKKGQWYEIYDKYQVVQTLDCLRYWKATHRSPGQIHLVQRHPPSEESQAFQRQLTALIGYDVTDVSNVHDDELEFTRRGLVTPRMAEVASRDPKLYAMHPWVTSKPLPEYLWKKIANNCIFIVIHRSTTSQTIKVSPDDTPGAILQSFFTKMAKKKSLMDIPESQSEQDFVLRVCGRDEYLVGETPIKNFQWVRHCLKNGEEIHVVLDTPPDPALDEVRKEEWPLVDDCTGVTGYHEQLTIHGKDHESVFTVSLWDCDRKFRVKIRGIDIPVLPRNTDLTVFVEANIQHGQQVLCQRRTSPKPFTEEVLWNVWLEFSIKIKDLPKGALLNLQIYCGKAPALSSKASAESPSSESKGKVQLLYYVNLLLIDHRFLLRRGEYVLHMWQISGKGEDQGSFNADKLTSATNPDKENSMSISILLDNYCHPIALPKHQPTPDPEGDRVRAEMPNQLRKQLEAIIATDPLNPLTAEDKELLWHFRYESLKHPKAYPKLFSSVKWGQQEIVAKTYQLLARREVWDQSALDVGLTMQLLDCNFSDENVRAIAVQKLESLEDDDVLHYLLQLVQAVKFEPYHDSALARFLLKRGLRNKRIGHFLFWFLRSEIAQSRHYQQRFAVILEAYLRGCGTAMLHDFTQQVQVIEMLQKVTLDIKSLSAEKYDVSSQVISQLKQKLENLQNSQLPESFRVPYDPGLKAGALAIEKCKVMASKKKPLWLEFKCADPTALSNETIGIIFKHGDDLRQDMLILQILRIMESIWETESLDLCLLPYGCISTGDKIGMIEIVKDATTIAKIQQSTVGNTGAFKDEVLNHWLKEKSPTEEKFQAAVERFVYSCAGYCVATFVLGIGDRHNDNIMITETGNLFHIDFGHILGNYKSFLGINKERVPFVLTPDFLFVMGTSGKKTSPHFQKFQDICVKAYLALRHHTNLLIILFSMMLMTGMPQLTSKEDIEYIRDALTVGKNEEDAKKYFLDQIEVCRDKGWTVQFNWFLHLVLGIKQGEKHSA

## Cc1c(CNc2ccc(OCC[C@H](NC3CCCCC3)C(=O)OC3CCCC3)cc2)cnc2nc(N)nc(N)c12 [Compound 4, (S)-2-Cyclohexylamino-4-{4-[(2,4-diamino-5-methyl-pyrido[2,3-d]pyrimidin-6-ylmethyl)-amino]-phenoxy}-butyric acid cyclopentyl ester]
[1]
  Ratio IC50 cell/enzyme: 6.6
  IC50: 6900 nM
[2]; U937 monocytic cell line
  IC50: 310 nM
[2]; [7]
  Ratio IC50 cell/enzyme: 0.3
[2]
  selectivity between a monocytic and non-monocytic cell line (cell proliferation): significantly more anti-proliferative in monocytic cell lines then non-monocytic cell lines
[3]
  cleavage of ester in monocytic versus non-monocytic cell lines: selective cleavage in monocytic but not non-monocytic cell lines

## Cc1nc(NC(=O)CC[C@H](N)C(=O)OC2CCCC2)sc1-c1ccc(Cl)c(S(C)(=O)=O)c1 [Compound 21, (S)-2-Amino-4-[5-(4-chloro-3-methanesulfonyl-phenyl)-4-methyl-thiazol-2-ylcarbamoyl]-butyric acid cyclopentyl ester]
[4]
  IC50: 400 nM
  Ratio IC50 WB/enzyme: 0.15
[5]
  IC50: 2700 nM

## O=C(CCCCCCC(=O)Nc1cccc(CN[C@H](C(=O)OC2CCCC2)c2ccccc2)c1)NO [Compound 8, (S)-[3-(7-Hydroxycarbamoyl-heptanoylamino)-benzylamino]-phenyl-acetic acid cyclopentyl ester]
[6]
  IC50: 100 nM
[2]; U937 monocytic cell line
  IC50: 50 nM
[2]; U937 cell proliferation IC50 / HDAC enzyme IC50
  Ratio IC50 cell/enzyme: 0.5

## Cc1nc(NC(=O)CC[C@H](N)C(=O)OC(C)(C)C)sc1-c1ccc(Cl)c(S(C)(=O)=O)c1 [Compound 23, (S)-2-Amino-4-[5-(4-chloro-3-methanesulfonyl-phenyl)-4-methyl-thiazol-2-ylcarbamoyl]-butyric acid tert-butyl ester]
[4]
  IC50: 5200 nM
  Ratio IC50 WB/enzyme: 0.75
[5]
  IC50: 7100 nM

## CC(=O)Nc1nc(C)c(-c2ccc(Cl)c(S(C)(=O)=O)c2)s1 [Compound 20, N-[5-(4-Chloro-3-methanesulfonyl-phenyl)-4-methyl-thiazol-2-yl]-acetamide, reference compound]
[4]
  IC50: 8500 nM
  Ratio IC50 WB/enzyme: 17
[5]
  IC50: 500 nM

## Cc1c(CNc2ccc(CN[C@@H](CC(C)C)C(=O)OC3CCCC3)cc2)cnc2nc(N)nc(N)c12 [Compound 5, (S)-2-{4-[(2,4-Diamino-5-methyl-pyrido[2,3-d]pyrimidin-6-ylmethyl)-amino]-benzylamino}-4-methyl-pentanoic acid cyclopentyl ester]
[1]
  Ratio IC50 cell/enzyme: 1.7
  IC50: 6700 nM
[2]; U937 monocytic cell line
  IC50: 310 nM
[2]; [7]
  Ratio IC50 cell/enzyme: 0.8
[2]
  selectivity between a monocytic and non-monocytic cell line (cell proliferation): significantly more anti-proliferative in monocytic cell lines then non-monocytic cell lines
[3]
  cleavage of ester in monocytic versus non-monocytic cell lines: selective cleavage in monocytic but not non-monocytic cell lines

## O=C(CCCCCCC(=O)Nc1cccc(CN[C@H](C(=O)O)c2ccccc2)c1)NO [Compound 9, (S)-[3-(7-Hydroxycarbamoyl-heptanoylamino)-benzylamino]-phenyl-acetic acid]
[6]
  IC50: 70 nM
[2]; U937 monocytic cell line
  Cell proliferation IC50 nM (U937 cells): Inactive
